Patent US12708602B2, “Fermentation extracts, cosmetic composition and manufacturing method of fermentation extracts” (bioMOA Medical, Inc., priority 2023, dated 2026)

Conditions: dissolved in purified water (FIG. 3)

N[C@@H](CCC(=O)N[C@@H](CS)C(=O)NCC(=O)O)C(=O)O [glutathione powder, glutathione]
precipitation: precipitation occurred from the first day
